Earlier results on 1 molecule are cited in patent US20220347399A1, “SYSTEMS AND METHODS OF USING AN ULTRASONIC FOGGER TO DISTRIBUTE AN ANTISEPTIC SOLUTION” (Wonder Spray, LLC, priority 2021, published 2022).

The subject of data set [1] is E. coli. The note with it: 50 mM (2.6 ppm) HOCl, within 5 minutes.
Data set [2] concerns E. coli. The note with it: 50 mM (2.6 ppm) HOCl, within 5 minutes. The source holds these as a separate data set.
The next data set relates to f2 RNA. The note with it: f2 capsid proteins could still adsorb to the host.
The conditions of data set [3]: inhalation of vaporized HOCl.

Consider `OCl` [HOCl, Hypochlorous acid], for which the “inhibition of the growth of E. coli” value in the data set on E. coli [1] is “completely inhibited”. The “inhibition of DNA synthesis” value in the data set with E. coli [2] is on record as “ninety-six”. In addition, the “inactivation of naked f2 RNA versus RNA in intact phage” value with f2 RNA was “inactivated naked f2 RNA at the same rate as RNA in intact phage”. In data set [3], the “adverse effects on inhaling the vaporized form” value was “no adverse effects”.
